The values below come from patent publication US20220105051A1, “COMPOUNDS FOR INCREASING MHC-I EXPRESSION AND MODULATING HISTONE DEACETYLASE ACTIVITY” (Cava Healthcare Inc., priority 2019, published 2022).

“Also recorded” adds a separate entry of the source.

Assay type in all cases: biochemical
One experiment concerns the target T1, HDAC10 (Homo sapiens, UniProt Q969S8).
T1 construct: purchased BPS Biosciences
T1 sequence (Q969S8 1-669): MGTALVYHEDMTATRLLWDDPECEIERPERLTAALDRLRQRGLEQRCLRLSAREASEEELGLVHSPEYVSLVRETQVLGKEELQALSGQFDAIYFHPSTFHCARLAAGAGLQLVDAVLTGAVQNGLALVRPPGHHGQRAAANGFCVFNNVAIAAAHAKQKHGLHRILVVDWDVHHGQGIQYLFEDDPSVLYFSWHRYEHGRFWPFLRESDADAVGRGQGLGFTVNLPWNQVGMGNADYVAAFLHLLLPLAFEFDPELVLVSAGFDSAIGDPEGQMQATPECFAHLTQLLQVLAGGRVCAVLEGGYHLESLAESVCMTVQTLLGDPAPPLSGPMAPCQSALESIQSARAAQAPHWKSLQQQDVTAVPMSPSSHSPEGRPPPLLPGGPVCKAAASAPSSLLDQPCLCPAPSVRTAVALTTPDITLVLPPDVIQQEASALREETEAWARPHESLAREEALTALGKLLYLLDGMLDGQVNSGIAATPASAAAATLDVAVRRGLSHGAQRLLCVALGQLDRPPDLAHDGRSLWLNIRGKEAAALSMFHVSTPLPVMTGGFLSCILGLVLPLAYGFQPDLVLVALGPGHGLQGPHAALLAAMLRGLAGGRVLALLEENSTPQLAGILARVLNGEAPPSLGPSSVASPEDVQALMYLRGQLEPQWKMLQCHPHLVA
As to the kind of experiment: Individualized HDAC assay, HDAC10 (HDAC-Glo). Particulars: purified enzyme; for HDAC10 activity: 5 to 0.02 μM. As to the method: (§1) The activity of the curcuphenol analogues was assessed with purified HDAC enzymes from all classes I, II, and IV, as well as a select member of HDAC class III (SIRT1). HDACs 1-9 and SIRT1 were evaluated using HDAC Fluorogenic Assay Kits (BPS Biosciences). All assays were completed in black-sided clear-bottom 96 well plates (PerkinElmer), and all treatments were plated in triplicates. Treatment started at 5 μM and was two-fold diluted to a concentration 0.02 μM. The assays were measured using the Synergy HI hybrid reader (BioTek) and Gen5 software (BioTek), excitation was set to 360 nm and detection was measured at 450 nm with a gain of 100. Alternatively HDAC 10 and 11 (BPS Biosciences) were optimized for HDAC concentration using the HDAC-Glo™ I/II Assay and Screening System (Promega). Following optimization each HDAC was run following the Promega protocol in black-sided clear-bottomed 96 well plates in triplicates with same treatments listed above (PerkinElmer). Luminescence was read 30 minutes after HDAC-Glo™I/II reagent was added using the Synergy HI hybrid reader (BioTek) and Gen5 software (Bio-Tek). […] To calculate percent activity, the average of blank wells was subtracted from all treatment groups. The relative mean of activity of the HDAC being measured was determined and all wells that received treatment were divided this average, to give a percentage of activity.
(§2) To evaluate the effect of the compounds on specific HDACs, their activity was assessed with purified HDAC enzymes from all classes I, II, and IV, as well as a select member of HDAC class III (SIRT1). HDACs 1-9 and SIRT1 were evaluated using HDAC Fluorogenic Assay Kits (BPS Biosciences) following the manufacturer's recommendations. Compound treatment started at 5 μM and was two-fold diluted to a concentration 0.02 μM. Alternatively, HDAC 10 and 11 assays (BPS Biosciences) were optimized to be used with the HDAC-Glo™ I/II Assay and Screening System (Promega). The assays were measured using the Synergy HI hybrid reader (BioTek) and Gen5 software (Bio-Tek). […] To calculate the fold change in HDAC activity, the values from each treated well were divided by the relative mean of activity of the specific HDAC being measured.

The next experiment deals with T2, HDAC4 (Homo sapiens, UniProt P56524).
T2 construct: purchased BPS Biosciences
T2 sequence (P56524 whole entry): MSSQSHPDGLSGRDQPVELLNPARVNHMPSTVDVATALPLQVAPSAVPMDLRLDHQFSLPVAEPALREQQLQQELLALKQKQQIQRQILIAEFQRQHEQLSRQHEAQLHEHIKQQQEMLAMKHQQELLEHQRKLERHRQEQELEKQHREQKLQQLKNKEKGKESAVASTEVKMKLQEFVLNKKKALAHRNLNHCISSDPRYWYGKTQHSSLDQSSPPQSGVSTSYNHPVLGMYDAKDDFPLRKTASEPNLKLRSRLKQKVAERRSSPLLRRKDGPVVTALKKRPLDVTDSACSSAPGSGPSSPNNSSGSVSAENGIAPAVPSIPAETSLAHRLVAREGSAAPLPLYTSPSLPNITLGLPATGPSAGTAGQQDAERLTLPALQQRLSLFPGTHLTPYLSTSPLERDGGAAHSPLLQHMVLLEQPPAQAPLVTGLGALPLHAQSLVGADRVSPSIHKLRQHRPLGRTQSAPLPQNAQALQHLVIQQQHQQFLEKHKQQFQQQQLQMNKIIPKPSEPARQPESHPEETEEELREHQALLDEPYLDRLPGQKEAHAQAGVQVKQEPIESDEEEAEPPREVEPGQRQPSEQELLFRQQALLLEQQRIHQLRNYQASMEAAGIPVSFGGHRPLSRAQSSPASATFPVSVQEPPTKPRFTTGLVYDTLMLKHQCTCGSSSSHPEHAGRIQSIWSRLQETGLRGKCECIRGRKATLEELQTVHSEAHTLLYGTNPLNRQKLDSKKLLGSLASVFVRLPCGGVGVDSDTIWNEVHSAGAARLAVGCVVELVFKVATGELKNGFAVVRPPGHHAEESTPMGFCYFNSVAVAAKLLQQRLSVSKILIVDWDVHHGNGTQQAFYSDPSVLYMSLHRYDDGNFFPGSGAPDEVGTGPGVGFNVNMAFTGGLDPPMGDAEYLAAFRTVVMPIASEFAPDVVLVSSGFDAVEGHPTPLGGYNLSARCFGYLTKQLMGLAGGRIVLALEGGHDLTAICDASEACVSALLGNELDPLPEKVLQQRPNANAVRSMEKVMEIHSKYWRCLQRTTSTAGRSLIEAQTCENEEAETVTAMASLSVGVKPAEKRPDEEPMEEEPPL
As to the kind of experiment: Individualized HDAC assay, HDAC4. Particulars: purified enzyme, 5 to 0.02 μM. The method, then: as §1
as §2, with “Alternatively, HDAC 10 and 11 assays (BPS Biosciences) were optimized to be used with the HDAC-Glo™ I/II Assay and Screening System (Promega).” left out

The target in another experiment is T3, HDAC7 (Homo sapiens, UniProt Q8WUI4).
T3 construct: purchased BPS Biosciences
T3 sequence (Q8WUI4 1-952): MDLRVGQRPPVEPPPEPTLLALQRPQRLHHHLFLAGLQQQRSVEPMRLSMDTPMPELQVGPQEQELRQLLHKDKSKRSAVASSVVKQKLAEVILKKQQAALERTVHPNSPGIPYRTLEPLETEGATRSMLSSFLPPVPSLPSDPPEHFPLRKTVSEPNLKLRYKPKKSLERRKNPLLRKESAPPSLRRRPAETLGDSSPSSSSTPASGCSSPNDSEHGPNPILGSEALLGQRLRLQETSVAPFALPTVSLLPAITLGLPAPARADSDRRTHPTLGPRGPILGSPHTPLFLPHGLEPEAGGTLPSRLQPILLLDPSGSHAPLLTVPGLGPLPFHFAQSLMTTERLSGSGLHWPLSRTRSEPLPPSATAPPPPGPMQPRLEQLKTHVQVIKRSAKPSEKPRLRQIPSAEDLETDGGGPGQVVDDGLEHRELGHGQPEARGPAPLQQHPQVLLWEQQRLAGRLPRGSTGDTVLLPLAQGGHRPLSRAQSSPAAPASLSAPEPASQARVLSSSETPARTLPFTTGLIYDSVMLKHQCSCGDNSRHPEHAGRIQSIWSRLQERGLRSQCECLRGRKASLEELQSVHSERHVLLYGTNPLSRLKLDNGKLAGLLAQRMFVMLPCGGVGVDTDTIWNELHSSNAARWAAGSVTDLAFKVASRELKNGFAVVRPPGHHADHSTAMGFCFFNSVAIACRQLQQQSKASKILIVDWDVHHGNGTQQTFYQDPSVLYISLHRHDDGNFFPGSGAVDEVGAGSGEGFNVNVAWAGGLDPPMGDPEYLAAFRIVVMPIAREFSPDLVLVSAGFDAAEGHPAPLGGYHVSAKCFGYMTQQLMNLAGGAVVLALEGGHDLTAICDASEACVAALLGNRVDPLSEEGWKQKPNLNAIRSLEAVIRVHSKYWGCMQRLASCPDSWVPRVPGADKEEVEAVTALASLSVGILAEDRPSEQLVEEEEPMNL
Nature of the experiment: Individualized HDAC assay, HDAC7. Particulars: purified enzyme, 5 to 0.02 μM. The method, then:
as §1
as §2, with “Alternatively, HDAC 10 and 11 assays (BPS Biosciences) were optimized to be used with the HDAC-Glo™ I/II Assay and Screening System (Promega).” left out

As to `CC(C)=CCC[C@H](C)c1ccc(C)cc1O` [Curcuphenol, curcuphenol], on HDAC10, the HDAC10 activity result is “activates”.

`CC(C)=CCCCc1ccc(C)cc1O` [P02-113]: on HDAC4, the HDAC4 activity entry is on record as “no change in activity; also recorded: did not affect the activity; also recorded: unaffected”. On HDAC7, the HDAC7 activity result was “no change in activity; also recorded: did not affect the activity; also recorded: unaffected”. Further, on HDAC10, the “concentration range of HDAC10 enhancement” value is “enhanced at all concentrations tested” and the HDAC10 activity entry is “enhanced; also recorded: increase in activity levels”.

Take `COc1ccc(C(C)CCC=C(C)C)c(O)c1` (stereo not drawn) [P03-97-1]: the HDAC4 activity entry is listed as “no change in activity; also recorded: unaffected” at HDAC4 and “did not affect the activity” on HDAC4 (listed as PO-3-97-1). The HDAC7 activity entry was “no change in activity; also recorded: unaffected” on HDAC7 and “did not affect the activity” on HDAC7 (listed as PO-3-97-1). In addition, the “concentration range of HDAC10 enhancement” value on HDAC10 is reported as “enhanced at all concentrations tested”. The HDAC10 activity entry at HDAC10 is “enhanced; also recorded: increase in activity levels”; on HDAC10 (listed as PO-3-97-1) it was “enhanced”.
